Tests used:
male C57 BL6 mice = assay: Mouse head-twitch response (HTR); format: in vivo; settings: head twitches over a 1 h period, FIG. 1 and FIG. 2
Method: FIG. 1 is a graph showing the effect of various doses of exemplary compound of Formula I, I-28, on head-twitch response (HTR) in male C57 BL6 mice. The mice were treated with compound I-28 ([…]) by PO route (N=6 mice/dose), and the total number of head twitches were recorded over a 1 h period. Data is expressed as mean±SEM. The induction of head twitches elicited by 5-HT2A receptor agonists is believed to represent a behavioural proxy of their psychedelic effects.
The mice were treated with compound MSP-1007 (0.03-10 mg/kg) by SC route (N=6 mice/dose), and the total number of head twitches were recorded over a 1 h period. Data is expressed as mean±SEM. […]
The effect of different doses of exemplary compound I-28 of Formula I and its active metabolite were evaluated on head-twitch response (HTR) as a behavior-based model of psychedelic activity.
Male, C57 BL/6 J mice (body weight range 20-30 g) were dosed with the appropriate dose of test article, and following a 1-minute pre-treatment time, placed in individual observation chambers. Animals were visually assessed for the incidence head twitches continuously over a 1 hr period. […] Each head twitch was individually counted by a trained observer, and the data expressed as the mean±SEM of 6-10 mice per group. […]

human 5-HT2A receptor = human 5-HT2A receptor (Homo sapiens (Human), UniProt P28223); assay: Radioligand binding assay on human 5-HT2A receptor ([3H]-ketanserin)
Method: i. Prepare the assay buffer following the table below;
ii. Preparation of 8 doses of reference and test compounds starting from 10 mM stock solution as requested by 5-fold serial dilutions with 100%;
iii. […] a. Add 50 μl/well of 0.5% (v/v) PEI to UniFilter-96 GF/B plates. Seal the plates and incubate at 4° C. for 3 hrs; b. After incubation, wash the plates 3 times with ice-cold wash buffer (50 mM Tris, pH7.4);
iv. Preparation of assay plates: a. Dilute cell membrane with assay buffer and add 330 μl/well to 96 round deep well plates to reach a concentration of 20 μg/well; b. […] Dilute [3H]-ketanserin with assay buffer to 5 nM (5× final concentration) and add 110 μl/well to 96 round deep well plates.
v. Centrifuge the plate at 1000 rpm for 30 secs and then agitate at 600 rpm, R.T. for 5 min.
vii. Stop the incubation by vacuum filtration onto GF/B filter plates followed by 4 times washing with ice-cold wash buffer (50 mM Tris, pH7.4).
ix. […]
For reference and exemplary test compounds of the application, the results are expressed as % Inhibition, using the normalization equation: N=100−100×(U−C2)/(C1−C2), where U is the unknown value, C1 is the average of high controls, and C2 is the average of low controls. The IC50 is determined by fitting percentage of inhibition as a function of compound concentrations with Hill equation using XLfit.

Compound	efficacy to induce head twitch (in words) (male C57 BL6 mice)	IC50 (human 5-HT2A receptor) [nM]
[2H]C([2H])([2H])N(C([2H])([2H])[2H])C([2H])([2H])C([2H])([2H])c1c[nH]c2cccc(O)c12 [Compound I-45, 3-(2-(bis(methyl-d3)amino)ethyl-1,1,2,2-d4)-1H-indol-4-ol]	greater efficacy to induce head twitch than the exemplary prodrug I-28	
[2H]C([2H])([2H])N(C([2H])([2H])[2H])C([2H])([2H])C([2H])([2H])c1c[nH]c2cccc(OC(=O)CCCCCCC/C=C\C/C=C\CCCCC)c12 [Compound I-28, 3-(2-(bis(methyl-d3)amino)ethyl-1,1,2,2-d4)-1H-indol-4-yl (9Z,12Z)-octadeca-9,12-dienoate]		516

— patent US11591353B2 (Mindset Pharma Inc., priority 2020, dated 2023)
